Laboratory results published in paper PMC5746060, “General and Modular Strategy for Designing Potent, Selective, and Pharmacologically Compliant Inhibitors of Rhomboid Proteases” (Cell Chemical Biology, 2017).
Starred links: 1 amine or outer side, 2 acyl side, 3 side chain; linkers in the order of their positions; H or OH if unused. Non-standard residues stand in square brackets, D forms with d. Residues, ends and D or L forms follow the SMILES beside them. *: point of attachment. NH(4-phenylbutyl) = c1ccc(CCCCN*)cc1; X1 = C[C@H](N[*:1])C(=O)C(=O)[*:2]; NHPhenethyl = c1ccc(CCN*)cc1

Key:
Assay in all cases: activity-based probe competition assay, rhomboid panel
Format in all cases: biochemical
HiGlpG = molecular target: T1, HiGlpG (Haemophilus influenzae, UniProt P44783); conditions: 50 μM and 0.5 μM; outcompeted the ABP even at 500 nM
T1 construct: made in house
T1 sequence (P44783 whole entry): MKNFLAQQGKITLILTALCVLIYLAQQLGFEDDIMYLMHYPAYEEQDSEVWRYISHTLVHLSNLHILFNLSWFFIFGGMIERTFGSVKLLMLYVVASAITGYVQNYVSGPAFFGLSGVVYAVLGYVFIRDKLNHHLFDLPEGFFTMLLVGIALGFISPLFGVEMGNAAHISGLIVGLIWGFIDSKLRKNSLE
Excerpt: (§1) Any enzyme inhibitors to be used as specific tools for cell biology or as starting points for drug development must show sufficient level of selectivity toward their intended target. This is particularly important for compounds that react with the catalytic nucleophile common to many serine hydrolases. […] To map the selectivity of peptidyl ketoamides more objectively and widely, we employed activity-based probe (ABP) competition assays that enable a more general and substrate-independent measurement of inhibitory potency, because they rely solely on the competition between a fluorescently labeled activity-based probe and the tested inhibitor ([Nguyen et al., 2015], [Serim et al., 2012]). The assays we employed used fluorophosphonate ABPs that target the catalytic serine of a wide-range of serine hydrolases ([Bachovchin et al., 2014]), including rhomboids ([Xue et al., 2012]), and are thus very practical general detection reagents even for serine hydrolases for which sensitive substrates might not be available.
(§2) Figure 5 Selectivity of Peptidyl Ketoamides (A) Selectivity of compounds 9, 10, and 11 for nine rhomboid proteases was profiled using activity-based probe competition assay at 50 μM and 0.5 μM concentration. The upper limit of enzyme concentration was 0.4 μM. (B) Selectivity of compounds 9, 10, and 11 against human serine hydrolases was analyzed using EnPlex as described ([Bachovchin et al., 2014]).
(§3) For inhibitor selectivity profiling against rhomboid proteases ([Wolf et al., 2015]), 400 ng of a purified protein preparation of E. coli GlpG was diluted in 30 μL of reaction buffer (20 mM HEPES, pH 7.4, with 0.05% (w/v) DDM). For other rhomboids, amounts were taken that gave similar labeling intensity during profiling. Rhomboids were incubated for 30 min at room temperature with the indicated concentration of compound, 100 μM DCI as positive control, or an equal volume of DMSO as negative control. Next, TAMRA-FP serine hydrolase probe (Thermo Fisher #88318) was added to a final concentration of 1 ìM and incubated for 2 h at 37°C in the dark. The reaction was stopped by addition of 4× Laemmli buffer and the reaction mixture was resolved on 15% SDS-PAGE. Gels were scanned on a Typhoon Trio+ and analyzed using ImageJ. The intensity of each rhomboid protease band calculated by ImageJ was normalized against its corresponding DMSO-treated counterpart (100% activity) to indicate the residual activity left after inhibition. The remaining activity was used to calculate the percentage of inhibition depicted in the heatmap. Selectivity profiles against human serine hydrolases were determined by EnPlex as described previously ([Bachovchin et al., 2014]).

MmRHBDL3 = molecular target: T2, MmRHBDL3 (Mus musculus, UniProt P58873); conditions: 50 μM and 0.5 μM
T2 construct: made in house
T2 sequence (P58873 1-404): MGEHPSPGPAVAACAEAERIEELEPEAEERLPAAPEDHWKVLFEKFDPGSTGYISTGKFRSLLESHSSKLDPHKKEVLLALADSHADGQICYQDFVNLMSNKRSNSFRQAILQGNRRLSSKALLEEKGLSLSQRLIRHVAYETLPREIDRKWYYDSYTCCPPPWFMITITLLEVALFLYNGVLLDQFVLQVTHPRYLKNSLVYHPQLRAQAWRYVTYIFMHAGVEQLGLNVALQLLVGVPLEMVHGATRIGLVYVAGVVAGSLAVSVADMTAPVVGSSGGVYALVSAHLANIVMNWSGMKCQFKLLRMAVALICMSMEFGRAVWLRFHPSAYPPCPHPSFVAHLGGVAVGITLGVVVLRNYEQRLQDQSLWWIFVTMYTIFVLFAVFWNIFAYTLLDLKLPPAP
Excerpt: as §1, §2, §3

AarA = molecular target: T3, AarA (Providencia stuartii, UniProt P46116); conditions: 50 μM and 0.5 μM; outcompeted the ABP even at 500 nM
T3 construct: made in house
T3 sequence (P46116 1-281): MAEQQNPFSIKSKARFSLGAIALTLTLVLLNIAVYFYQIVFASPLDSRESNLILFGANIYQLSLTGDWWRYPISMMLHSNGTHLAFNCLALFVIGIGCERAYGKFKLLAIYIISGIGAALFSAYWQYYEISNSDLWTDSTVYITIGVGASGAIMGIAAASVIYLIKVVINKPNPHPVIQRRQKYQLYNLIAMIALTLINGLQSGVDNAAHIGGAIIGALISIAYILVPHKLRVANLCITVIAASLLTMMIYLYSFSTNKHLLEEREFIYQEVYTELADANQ
Excerpt: as §1, §2, §3

DmRho1 = molecular target: T4, DmRho1 (Drosophila melanogaster, UniProt P20350); conditions: 50 μM and 0.5 μM
T4 construct: made in house
T4 sequence (P20350 1-355): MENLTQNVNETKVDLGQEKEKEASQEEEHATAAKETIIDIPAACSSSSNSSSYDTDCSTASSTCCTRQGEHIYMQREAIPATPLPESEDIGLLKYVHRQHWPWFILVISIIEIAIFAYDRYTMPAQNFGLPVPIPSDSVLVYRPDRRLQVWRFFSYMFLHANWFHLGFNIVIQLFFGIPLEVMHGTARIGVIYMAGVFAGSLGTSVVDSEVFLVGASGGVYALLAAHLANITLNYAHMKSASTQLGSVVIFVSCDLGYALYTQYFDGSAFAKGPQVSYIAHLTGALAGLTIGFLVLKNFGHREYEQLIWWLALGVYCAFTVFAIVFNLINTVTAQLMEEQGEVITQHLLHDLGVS
Excerpt: as §1, §2, §3

SMILES | competition with ABP labeling of HiGlpG (HiGlpG) | competition with ABP labeling of MmRHBDL3 (MmRHBDL3) | competition with ABP labeling of AarA (AarA) | competition with ABP labeling of DmRho1 (DmRho1)
CC(=O)N[C@@H](CCCNC(=N)N)C(=O)N[C@H](C(=O)N[C@@H](CCCNC(=N)N)C(=O)N[C@@H](Cc1c[nH]cn1)C(=O)N[C@@H](C)C(=O)C(=O)NCCc1ccccc1)C(C)C [compound 9, Ac-RVRHA-CONH-phenylethyl] (Ac-RVRH[X1]-NHPhenethyl) | potently competed | none of these compounds were able to compete | potently competed | none of these compounds were able to compete
CC(=O)N[C@@H](CCCNC(=N)N)C(=O)N[C@H](C(=O)N[C@@H](CCCNC(=N)N)C(=O)N[C@@H](Cc1c[nH]cn1)C(=O)N[C@@H](C)C(=O)C(=O)NCCCCc1ccccc1)C(C)C [compound 11, Ac-RVRHA-CONH-phenylbutyl] (Ac-RVRH[X1]-{NH(4-phenylbutyl)}) | potently competed | none of these compounds were able to compete | potently competed | none of these compounds were able to compete
